# Results as given in US8603764B2, “EphA kinase cancer diagnostic” (Case Western Reserve University, priority 2009, dated 2013).
# Entries after “also recorded” stand apart in the source; their conditions may differ.
# How the values were obtained:
# U373 cells = assay: Boyden chamber chemotactic cell migration assay; assay type: cell-based, human; conditions: 10 ng/ml growth factor or 10 μM LPA
# Method: The chemotactic cell migration was carried out as described previously (J. Cell Biol. 162, 1281-1292). Briefly, both sides of the filter were coated with 10 μg/ml rat tail collagen type I at 4° C. overnight. 1×10^5 cells in serum-free medium containing 0.1% BSA were plated in the top of insert. EphrinA1-Fc or Fc was added to a final concentration of 1 μg/ml to the lower chamber together 5% FBS or various growth factors. Cells were allowed to migrate for 4 hours and then fixed with 4% paraformaldehyde. After staining with 0.5% crystal violet, cells that have passed through the filter and stayed on the undersides of inserts were counted.
# pS897-EphA2 = assay: Immunoblot with polyclonal anti-pS897-EphA2, U373 cells; assay type: cell-based, human; conditions: for induction of pS897-EphA2: serum-starved U373 cells, 10 ng/ml growth factor, 10 min; for serum-induced pS897-EphA2 under FGFR inhibition: U373 cells pretreated with 10 μM SU5402 or 100 nM BU for 30 min, 10% FBS 10 min
# Method: For stationary cells, sub-confluent cells were stimulated with 1 μg/ml ephrinA1-Fc for different times. To study the signaling events in migrating cells, the monolayer of freshly confluent cells was wounded by repeated scratch-wounding using a multichannel pipette. By doing so, the cells on the wound edges were induced to migrate. Four hours after wounding cells were stimulated with 1 μg/ml ephrinA1-Fc for different times. To look at the serum-induced signaling, cells were starved in serum-free medium overnight before stimulation or wounding. Both stationary and wounded cells were stimulated with 10% FBS in the presence of 1 μg/ml Fc or ephrinA1-Fc. Immunoprecipitation and immunoblot were performed as described previously (Nat. Cell Biol. 2, 62-69).
compound,measurement,setting,value
bFGF: growth factor implicated in development of human GBM,chemoattractant activity (chemotactic cell migration),U373 cells,potent chemoattractants
same,induction of pS897-EphA2,pS897-EphA2,capable of inducing pS897-EphA2
"CCCCCCCCCCCCCCCCCCOC[C@H](COP(=O)(O)O[C@H]1[C@H](O)[C@@H](O)[C@H](O)C[C@H]1OC)OC [SH-5, reference compound]",serum-induced pS897-EphA2 (S897 phosphorylation),"pS897-EphA2; serum-starved U373 cells pretreated with 10 μM inhibitor (SH-5 30 min; LY294002 1 hour), FBS 10 min",suppressed S897 phosphorylation; also recorded: abolishes serum-induced pS897-EphA2
"Cc1c[nH]c(/C=C2\C(=O)Nc3ccccc32)c1CCC(=O)O [SU5402, reference compound]",serum-induced pS897-EphA2 under FGFR inhibition,pS897-EphA2,not sufficient for inhibiting serum-induced pS897-EphA2
"COc1cc(OC)cc(-c2cc3cnc(N)nc3nc2NC(=O)NC(C)(C)C)c1 [BU, 1-(2-Amino-6-(3,5-dimethoxyphenyl)pyrido[2,3-d]pyrimidin-7-yl)-3-tert-butyl urea, reference compound]",serum-induced pS897-EphA2 under FGFR inhibition,pS897-EphA2,not sufficient for inhibiting serum-induced pS897-EphA2
HGF: growth factor implicated in development of human GBM,chemoattractant activity (chemotactic cell migration),U373 cells,potent chemoattractants
same,induction of pS897-EphA2,pS897-EphA2,capable of inducing pS897-EphA2
PDGF,chemoattractant activity (chemotactic cell migration),U373 cells,potent chemoattractants
same,induction of pS897-EphA2,pS897-EphA2,capable of inducing pS897-EphA2
"EGF: growth factor implicated in development of human GBM (NSDSECPLSHDGYCLHDGVCMYIEALDKYACNCVVGYIGERCQYRDLKWWELR; UniProt P01133 971-1023, looked up)",chemoattractant activity (chemotactic cell migration),U373 cells,potent chemoattractants
same,induction of pS897-EphA2,pS897-EphA2,capable of inducing pS897-EphA2
